The term Ki denotes a dissociation constant, usually derived from enzyme kinetics or from competition with a known ligand.

The text below walks through data of BindingDB's records for doi:10.1124/jpet.102.47407 (University of Tennessee, 2003).

Several values for one entry are separate records, joined by “and”; a condition that tells them apart may be missing. Equal values may be shown once.

The target in this assay is T1, cAMP-specific 3',5'-cyclic phosphodiesterase 4B (Rattus norvegicus, UniProt P14646).
T1 sequence (P14646 whole entry): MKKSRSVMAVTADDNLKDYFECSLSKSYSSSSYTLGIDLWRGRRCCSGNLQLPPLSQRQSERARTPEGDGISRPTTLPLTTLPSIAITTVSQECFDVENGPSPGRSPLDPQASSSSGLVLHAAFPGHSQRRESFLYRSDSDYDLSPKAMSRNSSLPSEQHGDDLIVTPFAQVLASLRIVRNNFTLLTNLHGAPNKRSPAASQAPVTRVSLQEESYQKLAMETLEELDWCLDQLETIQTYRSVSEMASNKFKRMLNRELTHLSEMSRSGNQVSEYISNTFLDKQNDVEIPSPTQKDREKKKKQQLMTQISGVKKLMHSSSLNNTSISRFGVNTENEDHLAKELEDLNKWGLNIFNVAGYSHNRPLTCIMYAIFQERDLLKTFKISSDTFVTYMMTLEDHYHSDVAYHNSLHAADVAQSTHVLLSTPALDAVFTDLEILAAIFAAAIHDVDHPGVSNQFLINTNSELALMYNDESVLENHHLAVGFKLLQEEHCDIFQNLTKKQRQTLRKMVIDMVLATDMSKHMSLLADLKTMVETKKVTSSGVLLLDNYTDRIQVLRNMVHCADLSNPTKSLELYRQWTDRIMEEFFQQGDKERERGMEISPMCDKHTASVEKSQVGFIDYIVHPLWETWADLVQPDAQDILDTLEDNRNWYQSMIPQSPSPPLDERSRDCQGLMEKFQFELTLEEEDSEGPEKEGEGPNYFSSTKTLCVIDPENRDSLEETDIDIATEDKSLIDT

For the compound `COc1ccc(Cc2nccc3cc(OC)c(OC)cc23)cc1OC`, the Ki was > 10 µM and 8.82 µM. The figure for `CC(C)Cn1c(=O)n(C)c(=O)c2[nH]cnc21` [1-methyl-3-(2-methylpropyl)-2,3,6,7-tetrahydro-1H-purine-2,6-dione] is 8.4 µM and 3.09 µM. For `COc1cc2c(cc1OC)-c1c/c(=N\c3c(C)cc(C)cc3C)n(C)c(=O)n1CC2` [CAS_5537], the Ki is > 10 µM and 3.15 µM.

For `COc1ccc(C(Cc2ccncc2)c2ccccc2)cc1OC1CCCC1` (configuration not stated) [CDP 840], the Ki is 0.9 µM and 1.25 µM. For the compound `O=C(Nc1c(Cl)cncc1Cl)c1ccc(OC(F)F)c(OCC2CC2)c1` [DAXAS], the Ki was 0.003 µM and 0.0024 µM.

In turn, `Cc1[nH]c(=O)c(C#N)cc1-c1ccncc1` [Milrinone] displayed a Ki greater than 10 µM. Turning to `CCOC(=O)C1=CC2(CC)CCCN3CCc4c(n1c1ccccc41)C32` (configuration not stated) [NSC_443955], the Ki is 1 µM.
